Values of other authors as cited in publication PMC12676331 (ACS Omega, 2025).

Tests used:
[1] = system: G-protein; details: in vitro and in vivo; ref number not given
[2] = system: P23H rod opsin; details: ref number not given
[3] = system: rod opsin mutants; details: in vitro; ref number not given
[4] = system: T17M Rho mouse model of RP; details: ref number not given

| Compound | G-protein activation [1] | maturation and membrane expression of P23H rod opsin [2] | folding and membrane trafficking of rod opsin mutants [3] | photoreceptor survival [4] |
| --- | --- | --- | --- | --- |
| 11-cis-6-membered-ring-retinal | can partially activate G-protein |  |  |  |
| 11-cis-7-membered-ring-retinal | does not activate G-protein | improve the maturation and membrane expression of P23H rod opsin |  |  |
| CC(=C/C(=O)O)/C=C/C=C(\C)C1C=C2C(C)(C)CCCC2(C)O1 (stereo not drawn) [13-cis-5,8-ERA, 8-epoxy-13-cis-retinoic acid] |  |  | promoted proper folding and membrane trafficking |  |
| CC1=C(/C=C/C(=O)N2CCN(C(N)=O)CC2)C(C)(C)CCC1 [SRD005825] |  |  | promoted proper folding and membrane trafficking | improved photoreceptor survival |
